Each structure is given as a SMILES string.

Experiment [1] addresses T1, Cytochrome P450 2C9 (Homo sapiens, UniProt P11712). In words: Inhibition of human recombinant CYP2C9 expressed in Saccharomyces cerevisiae by fluorescence assay. The format is ADME.
In experiment [2] the target is T2, Cytochrome P450 3A4 (Homo sapiens, UniProt P08684). In words: Inhibition of human recombinant CYP3A4 expressed in Saccharomyces cerevisiae by fluorescence assay. Type of experiment: ADME.
Another experiment is filed under the species Homo sapiens. Kind of experiment: Selectivity for human recombinant CYP2C9 over human recombinant CYP3A4.
Experiment [3] has as its target T1, Cytochrome P450 2C9. In words: Binding affinity to purified human recombinant CYP2C9 expressed in Escherichia coli assessed as spectral dissociation constant. Type of experiment: ADME.
Experiment [4] deals with T2, Cytochrome P450 3A4. Kind of experiment: Binding affinity to purified human recombinant CYP3A4 expressed in Escherichia coli assessed as spectral dissociation constant. The format is ADME.

T2 sequence (P08684 whole entry): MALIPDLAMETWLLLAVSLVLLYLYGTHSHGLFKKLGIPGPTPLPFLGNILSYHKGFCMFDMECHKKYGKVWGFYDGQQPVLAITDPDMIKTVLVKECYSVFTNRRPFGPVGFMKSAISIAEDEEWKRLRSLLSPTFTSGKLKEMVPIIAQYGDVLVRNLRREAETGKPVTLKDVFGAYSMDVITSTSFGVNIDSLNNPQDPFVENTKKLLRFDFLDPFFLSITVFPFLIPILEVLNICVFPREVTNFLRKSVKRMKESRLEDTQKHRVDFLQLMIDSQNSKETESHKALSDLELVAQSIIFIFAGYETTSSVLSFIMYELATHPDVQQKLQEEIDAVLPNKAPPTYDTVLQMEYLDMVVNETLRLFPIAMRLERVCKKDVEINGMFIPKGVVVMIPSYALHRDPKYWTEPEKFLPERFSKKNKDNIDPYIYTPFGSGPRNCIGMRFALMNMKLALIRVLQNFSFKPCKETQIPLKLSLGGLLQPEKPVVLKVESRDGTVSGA
T1 sequence (P11712 whole entry): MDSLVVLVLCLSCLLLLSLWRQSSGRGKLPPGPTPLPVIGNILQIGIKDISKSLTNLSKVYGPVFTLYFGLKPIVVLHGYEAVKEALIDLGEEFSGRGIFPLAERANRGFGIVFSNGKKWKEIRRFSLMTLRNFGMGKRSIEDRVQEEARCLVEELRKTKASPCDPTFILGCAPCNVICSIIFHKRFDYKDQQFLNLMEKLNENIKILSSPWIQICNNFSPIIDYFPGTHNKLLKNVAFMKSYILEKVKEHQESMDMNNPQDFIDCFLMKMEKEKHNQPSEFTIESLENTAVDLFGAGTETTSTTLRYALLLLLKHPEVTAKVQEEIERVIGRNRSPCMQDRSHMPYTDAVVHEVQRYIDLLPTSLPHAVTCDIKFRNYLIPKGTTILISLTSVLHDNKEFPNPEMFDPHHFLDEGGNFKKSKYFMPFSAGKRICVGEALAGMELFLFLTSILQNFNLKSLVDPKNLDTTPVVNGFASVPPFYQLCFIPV

A word on the IC50: it is the midpoint of a concentration-inhibition curve. With `Cc1cc(C(C)(C)NC(=O)C(Br)C(C)(C)C)cc(C)n1` (centres undefined), the half-maximal inhibitory concentration (IC50) is more than 50 µM on Cytochrome P450 2C9 [1] and 13 µM on Cytochrome P450 3A4 [2].
For `Cc1cnc(CNc2cc(-c3ccccc3)nc(-c3cccnc3)n2)nc1`, in that order: 21 µM and 9.6 µM.
For `Cc1cnc(CNc2cc(-c3ccccc3)nc(-c3ccccn3)n2)nc1`, in that order: more than 50 µM and more than 40 µM.
For `CCn1c(SCc2ccc(OC)cc2)nnc1-c1ccncc1`, in that order: more than 50 µM and 28 µM.
For `COC(=O)[C@H](Cc1cnc[nH]1)NCc1ccccc1`, the IC50 on Cytochrome P450 2C9 [1] was found to be 20 µM; on Cytochrome P450 3A4 [2], 1.5 µM.
With `O=C(Nc1ccccc1)OCc1cn(-c2ccc(Cl)cc2)nn1`, the 50% inhibitory concentration (IC50) at Cytochrome P450 3A4 [2] is more than 20 µM.
Take `CS(=O)(=O)Cc1cc(N2CCCC2)nc(-c2ccncc2)n1`: the 50% inhibitory concentration (IC50) at Cytochrome P450 2C9 [1] is more than 50 µM; on Cytochrome P450 3A4 [2], 1.3 µM.
Regarding `CS(=O)(=O)c1ccc(Cn2cc(-c3ccncc3)cn2)cc1`, the IC50 turned out to be 1.3 µM on Cytochrome P450 2C9 [1] and 26 µM on Cytochrome P450 3A4 [2]. Moreover, the Selectivity ratio in the experiment listed under Homo sapiens was 20.
Take `Cc1cnc(CNc2cc(-c3ccccc3)nc(-c3ccncc3)n2)nc1`: the results for the IC50 at Cytochrome P450 2C9 [1] and at Cytochrome P450 3A4 [2] were 4.8 µM and 0.071 µM, respectively.
For `CCOc1ccc(NC(=O)c2ccc(-n3cnnn3)cc2)cc1` the same measures were more than 30 µM and 34 µM.
Usually Kd stands for a measure of binding affinity in units of concentration. With `Clc1ccc(Cn2cc(-c3ccncc3)cn2)c(Cl)c1`, the 50% inhibitory concentration (IC50) at Cytochrome P450 2C9 [1] was determined as 0.5 µM; at Cytochrome P450 3A4 [2], 0.23 µM. Further, the dissociation constant Kd at Cytochrome P450 2C9 [3] came to 3.6 µM; at Cytochrome P450 3A4 [4], 0.38 µM.
`Clc1ccc(OC(Cn2ccnc2)c2ccc(Cl)cc2Cl)c(Cl)c1` (centres undefined): the values for the concentration for half-maximal inhibition (IC50) at Cytochrome P450 2C9 [1] and at Cytochrome P450 3A4 [2] were 10 µM and 0.06 µM, respectively.
With `CCC1COC(Cn2cncn2)(c2ccc(Cl)cc2Cl)O1` (centres undefined) [ETACONAZOLE], the concentration for half-maximal inhibition (IC50) at Cytochrome P450 2C9 [1] is more than 50 µM; on Cytochrome P450 3A4 [2], 0.21 µM. The dissociation constant (Kd) on Cytochrome P450 3A4 [4] stood at 0.21 µM.
On to `Clc1ccc(C2(Cn3cncn3)CC(Br)CO2)c(Cl)c1` (centres undefined) [BROMUCONAZOLE], for which the IC50 on Cytochrome P450 2C9 [1] came to 8.1 µM; on Cytochrome P450 3A4 [2], 0.13 µM.
For `COc1ccc(-c2cc(CNS(=O)(=O)c3ccccc3)on2)cc1` the same measures were 39 µM and 33 µM.
For `CCOC(=O)C(Cc1ccc(Cl)cc1Cl)c1ccno1` (centres undefined), in that order: 11 µM and 12 µM.
On to `CS(=O)(=O)OCC1COC(Cn2cncn2)(c2ccc(Cl)cc2Cl)O1` (centres undefined), for which the results for the concentration for half-maximal inhibition (IC50) on Cytochrome P450 2C9 [1] and on Cytochrome P450 3A4 [2] were more than 50 µM and 7.7 µM, respectively. The dissociation constant (Kd) on Cytochrome P450 3A4 [4] worked out at 3.5 µM.
On to `Brc1ccc(-n2c(SCc3ccccc3)nnc2-c2ccncc2)cc1`, for which the IC50 was 4.3 µM on Cytochrome P450 2C9 [1] and 1.3 µM at Cytochrome P450 3A4 [2].
For `CS(=O)(=O)Cc1cc(N2CCCC2)nc(-c2ccccc2)n1` the same measures were more than 50 µM and more than 40 µM.
With `O[C@](Cn1cccn1)(c1ccc(F)cc1F)n1cncn1`, the half-maximal inhibitory concentration (IC50) on Cytochrome P450 2C9 [1] was more than 50 µM; on Cytochrome P450 3A4 [2], 44 µM.

Values taken from ChEMBL document CHEMBL1144029, “Characterization of type II ligands in CYP2C9 and CYP3A4” (J Med Chem, 2008).
